The values that follow come from publication PMC10165104, “The immunosuppressive effects and mechanisms of loureirin B on collagen-induced arthritis in rats” (Frontiers in Immunology, 2023).

The structures appear in SMILES notation.

The test addresses T1, Kv1.3 (mKv1.3) voltage-gated potassium channel (Mus musculus, UniProt P16390).
T1 construct: gene Kcna3
Briefly: whole-cell voltage clamp of mKv1.[…] expressed in HEK293T cells. It is filed as cell-based.

Usually IC50 stands for the concentration at which inhibition is half-maximal. A lower IC50 goes with greater potency.

T1 sequence (P16390 whole entry): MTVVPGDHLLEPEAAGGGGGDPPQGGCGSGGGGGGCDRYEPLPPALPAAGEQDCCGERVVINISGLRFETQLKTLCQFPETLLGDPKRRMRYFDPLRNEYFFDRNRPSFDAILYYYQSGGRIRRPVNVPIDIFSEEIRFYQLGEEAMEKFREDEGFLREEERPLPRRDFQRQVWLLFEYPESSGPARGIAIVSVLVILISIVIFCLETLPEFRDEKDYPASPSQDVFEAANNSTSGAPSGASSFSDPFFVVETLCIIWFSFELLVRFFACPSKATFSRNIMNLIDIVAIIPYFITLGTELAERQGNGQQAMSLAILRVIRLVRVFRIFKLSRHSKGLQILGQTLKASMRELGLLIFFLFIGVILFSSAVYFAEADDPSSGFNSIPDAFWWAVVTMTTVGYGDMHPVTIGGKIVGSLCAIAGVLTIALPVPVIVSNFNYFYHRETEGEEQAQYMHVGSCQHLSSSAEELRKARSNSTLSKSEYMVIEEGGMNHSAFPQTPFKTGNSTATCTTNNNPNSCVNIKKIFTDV

In the case of `COc1cc(OC)c(CCC(=O)c2ccc(O)cc2)c(OC)c1` [LrB, Loureirin B], half-maximal inhibition (IC50) required 6.33 ± 0.49 µM.
